This note sets out measurements from ChEMBL document CHEMBL1201862, “PubChem BioAssay data set” (2004).

Some test systems named below: HOP-62; KM12; M14; OVCAR-4; SF-295; SK-OV-3; SN12C; HL-60; MCF7; IGROV-1; OVCAR-5; OVCAR-8; UACC-62; UO-31; LOX IMVI; COLO 205; HT-29; SR; RPMI-8226; CAKI-1.
Assay in all cases: NCI-60 cell line screen, 48 h

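Exposure lasted 48 hours, with cells grown in 96-well plates and compounds tested at five concentrations. GI50 = concentration required for 50% inhibition of growth.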 Active and inactive are the calls of the source. Cut-off read from the data, not from the text of the source: active = GI50 up to about 1.1 µM and inactive = higher.

For the compound `O=C1Cc2c([nH]c3cc(Br)ccc23)-c2ccccc2N1`, the GI50 in the assay on HOP-62 was 11.7 µM (inactive); in the assay on KM12, 18.6 µM (inactive); in the assay with M14, 18.5 µM (inactive); in the assay with OVCAR-4, 10.3 µM (inactive); in the assay on SF-295 it was 22.5 µM (inactive); in the assay on SK-OV-3, 19.9 µM (inactive). In addition, the GI50 was 18.5 µM (inactive) with SN12C; 58.2 µM (inactive) in the assay with HL-60; 34.6 µM (inactive) in the assay on MCF7; 16.4 µM (inactive) with IGROV-1; 9.51 µM (inactive) in the assay on OVCAR-5; 18.4 µM (inactive) in the assay with OVCAR-8. Also, the GI50 in the assay with UACC-62 is 12.6 µM (inactive); with UO-31, 17.6 µM (inactive); with LOX IMVI, 2.9 µM (inactive); in the assay on COLO 205, 19.2 µM (inactive); in the assay on HT-29, 13.9 µM (inactive); in the assay on SR, 21.9 µM (inactive).
In the case of `N#Cc1nnn(-c2ccc(Br)cc2)c1O`, the GI50 in the assay on HOP-62, with KM12, in the assay on M14, in the assay with RPMI-8226, in the assay on OVCAR-4 and in the assay with SF-295 was > 100 µM (inactive) in each case. Also, the GI50 in the assay on SK-OV-3, with SN12C, in the assay on HL-60, with MCF7, in the assay on IGROV-1 and with CAKI-1 was > 100 µM (inactive) each time. The GI50 in the assay with OVCAR-5, with OVCAR-8, in the assay with UACC-62, in the assay on UO-31, in the assay on LOX IMVI and in the assay on COLO 205 was > 100 µM (inactive) throughout. For the same compound, in the assay with HT-29, the GI50 was > 100 µM (inactive).
Turning to `CC1(C)CC(=O)c2c(nc3c4c([nH]c(-c5ccc([N+](=O)[O-])cc5)c24)CC(C)(C)C3)C1`, the GI50 with HOP-62 is > 100 µM (inactive); in the assay with KM12, 37.4 µM (inactive); with M14 it was 27.7 µM (inactive); with OVCAR-4, 34 µM (inactive); in the assay on SF-295 it was 30 µM (inactive); in the assay on SK-OV-3 it was > 100 µM (inactive). In addition, the GI50 in the assay on SN12C is 53.3 µM (inactive); in the assay on HL-60 it was 15.6 µM (inactive); in the assay on MCF7, 27.7 µM (inactive); in the assay with CAKI-1, 44.1 µM (inactive); with OVCAR-5, 58.1 µM (inactive); in the assay with OVCAR-8, 38.3 µM (inactive). In addition, the GI50 was 21.7 µM (inactive) with UACC-62; 29.6 µM (inactive) in the assay with UO-31; 31.3 µM (inactive) with LOX IMVI; 17 µM (inactive) in the assay on COLO 205; 11.1 µM (inactive) in the assay with HT-29; 1.07 µM (active) with SR.
For the compound `CCc1ccc(COC(=O)C2=C(C)NC(C)=C(C(=O)OCc3ccc(CC)cn3)C2C2=COCCO2)nc1`, the GI50 in the assay with HOP-62 is 17.5 µM (inactive); in the assay on KM12, 30.7 µM (inactive); with M14, 16.9 µM (inactive); in the assay with OVCAR-4, 25.1 µM (inactive); in the assay with SF-295, 24.9 µM (inactive); with SK-OV-3, 16.6 µM (inactive). Further, the GI50 in the assay with SN12C was > 10 µM (inactive); in the assay on HL-60, 22.4 µM (inactive); with MCF7, 19.5 µM (inactive); in the assay with IGROV-1 it was 39.8 µM (inactive); in the assay with CAKI-1, 23.9 µM (inactive); with OVCAR-5, 28.1 µM (inactive). The GI50 with OVCAR-8 is 32.9 µM (inactive); in the assay on UACC-62, 13.5 µM (inactive); in the assay on UO-31 it was 20.2 µM (inactive); in the assay with LOX IMVI, 15.2 µM (inactive); with COLO 205, 12.5 µM (inactive); in the assay on HT-29 it was 21.4 µM (inactive). The GI50 in the assay on SR is 21.8 µM (inactive).
`CC(C)=CCc1c(O)c(CC2=C(O)C(CC=C(C)C)(C(=O)C(C)C)C(O)=C(C)C2=O)c(O)c(C(=O)C(C)C)c1O` (stereo unspecified): the GI50 was 11.3 µM (inactive) in the assay with HOP-62; 7.53 µM (inactive) in the assay with KM12; 11.4 µM (inactive) with M14; 6.46 µM (inactive) in the assay on RPMI-8226; 15.8 µM (inactive) with OVCAR-4; 9.33 µM (inactive) in the assay with SF-295. For the same compound, the GI50 in the assay with SK-OV-3 was 18.8 µM (inactive); with SN12C it was 18.8 µM (inactive); in the assay on HL-60, 39 µM (inactive); in the assay with MCF7, 11.7 µM (inactive); with IGROV-1, 10.9 µM (inactive); in the assay with CAKI-1, 17.5 µM (inactive). Moreover, the GI50 in the assay on OVCAR-5 is 11.9 µM (inactive); in the assay on OVCAR-8, 12 µM (inactive); with UACC-62 it was 7.98 µM (inactive); with UO-31 it was 7.59 µM (inactive); in the assay on LOX IMVI, 9.48 µM (inactive); in the assay on COLO 205 it was 13 µM (inactive). For the same compound, in the assay on HT-29, the GI50 was 3.88 µM (inactive).
On to `O=c1c2ccccc2ncn1COCc1ccccc1`, for which the GI50 in the assay with KM12, with M14, in the assay on OVCAR-4, in the assay on SF-295, in the assay on SK-OV-3 and in the assay with HL-60 was > 100 µM (inactive) throughout. Further, the GI50 with MCF7 was > 100 µM (inactive); with IGROV-1, > 100 µM (inactive); in the assay with OVCAR-5 it was > 100 µM (inactive); in the assay on OVCAR-8, > 100 µM (inactive); in the assay with UACC-62, > 100 µM (inactive); in the assay with UO-31, 77.3 µM (inactive). The GI50 in the assay on LOX IMVI, with COLO 205, with HT-29 and with SR was > 100 µM (inactive) throughout.
Regarding `Oc1ccc(C(=C(Br)c2ccccc2)c2ccc(O)cc2)cc1`, the GI50 in the assay with HOP-62 is 10.4 µM (inactive); in the assay on KM12, 3.61 µM (inactive); in the assay with M14, 4.15 µM (inactive); in the assay with RPMI-8226, 4.66 µM (inactive); in the assay with OVCAR-4 it was > 10 µM (inactive); in the assay on SF-295 it was 6.14 µM (inactive). In addition, the GI50 in the assay on SK-OV-3 is 5.01 µM (inactive); with SN12C it was 5.92 µM (inactive); in the assay on HL-60, 3.39 µM (inactive); in the assay on MCF7, 3.13 µM (inactive); in the assay on IGROV-1 it was 4.45 µM (inactive); with CAKI-1, 16.6 µM (inactive). Also, the GI50 with OVCAR-5 was 17.3 µM (inactive); in the assay on OVCAR-8, 6.58 µM (inactive); with UACC-62, 8.47 µM (inactive); with UO-31 it was 6.59 µM (inactive); in the assay with LOX IMVI, 4.08 µM (inactive); with COLO 205, 3.73 µM (inactive). For the same compound, the GI50 in the assay on HT-29 is 1.91 µM (inactive).
In the case of `CN(C)N1C(=O)S/C(=C\c2ccc([N+](=O)[O-])cc2)C1=O`, the GI50 in the assay on HOP-62, in the assay on KM12, in the assay on M14, with OVCAR-4, with SF-295 and with SK-OV-3 was > 100 µM (inactive) each time. In addition, the GI50 with SN12C is > 100 µM (inactive); with HL-60, 34 µM (inactive); with MCF7, > 100 µM (inactive); in the assay with IGROV-1, > 100 µM (inactive); in the assay on CAKI-1 it was > 100 µM (inactive); in the assay on OVCAR-5 it was > 100 µM (inactive). Besides, the GI50 in the assay on OVCAR-8 is 99.3 µM (inactive); in the assay on UACC-62 it was > 100 µM (inactive); in the assay with LOX IMVI it was > 100 µM (inactive); in the assay with COLO 205 it was > 100 µM (inactive); with HT-29 it was > 100 µM (inactive); in the assay with SR, 57.4 µM (inactive).
Take `COc1cc(C(=O)C2CC3(CCC2(O)c2cc(OC)c(OC)c(OC)c2)CC(=O)Nc2ccccc2C3=O)cc(OC)c1OC` (stereo unspecified): the GI50 was > 100 µM (inactive) in the assay on HOP-62; 91.2 µM (inactive) in the assay with M14; 20.2 µM (inactive) with OVCAR-4; 98.2 µM (inactive) in the assay with SF-295; > 100 µM (inactive) with SK-OV-3; > 100 µM (inactive) with SN12C. Also, the GI50 is 30.5 µM (inactive) in the assay with HL-60; 60.4 µM (inactive) in the assay with MCF7; > 100 µM (inactive) in the assay with IGROV-1; > 100 µM (inactive) in the assay with CAKI-1; > 100 µM (inactive) with OVCAR-5; > 100 µM (inactive) with OVCAR-8. The GI50 in the assay on UACC-62 is > 100 µM (inactive); in the assay on UO-31 it was 33.7 µM (inactive); in the assay on LOX IMVI, 67.6 µM (inactive); in the assay with COLO 205, 26.5 µM (inactive); in the assay with HT-29 it was > 100 µM (inactive); in the assay on SR, 29.6 µM (inactive).
`CC(=O)[C@H]1CC[C@@H]2[C@]1(C)CC=C1[C@]23C=C[C@]2(C[C@@H](O)CC[C@]12C)C(C(=O)O)C3C(=O)O` (stereo partly specified): the GI50 in the assay on HOP-62, in the assay with KM12, with M14, with RPMI-8226, in the assay with OVCAR-4 and in the assay with SF-295 was > 100 µM (inactive) throughout. Further, the GI50 with SK-OV-3, in the assay on SN12C, in the assay with HL-60, in the assay with MCF7, in the assay with IGROV-1 and in the assay with CAKI-1 was > 100 µM (inactive) in each case. The GI50 in the assay with OVCAR-5, in the assay on OVCAR-8, in the assay with UACC-62, in the assay with UO-31, in the assay on LOX IMVI and in the assay with COLO 205 was > 100 µM (inactive) each time. Further, the GI50 in the assay with HT-29 is > 100 µM (inactive).
Turning to `CN1c2ccccc2SC2C(c3ccccc3)=NOC21` (stereo unspecified), the GI50 is 33.8 µM (inactive) in the assay on HOP-62; 47.8 µM (inactive) in the assay with KM12; 38.2 µM (inactive) with M14; 65.8 µM (inactive) in the assay on OVCAR-4; 30.7 µM (inactive) in the assay on SF-295; 64.1 µM (inactive) in the assay with SK-OV-3. In addition, the GI50 with SN12C was 47.8 µM (inactive); in the assay on HL-60 it was 53.7 µM (inactive); in the assay with MCF7 it was 42.7 µM (inactive); in the assay on IGROV-1, 41.6 µM (inactive); with CAKI-1 it was 40.6 µM (inactive); in the assay on OVCAR-5 it was 94.8 µM (inactive). For the same compound, the GI50 in the assay on OVCAR-8 was 49.3 µM (inactive); in the assay with UACC-62, 35.1 µM (inactive); in the assay with UO-31 it was 35.1 µM (inactive); with COLO 205, 22.7 µM (inactive); with HT-29, 30.1 µM (inactive); with SR, 62.1 µM (inactive).
